# Assay results published in patent US20130197043A1, “USE OF THE FETAL REPROGRAMMING OF A PPAR AGONIST” (SNU R&DB FOUNDATION, priority 2010, published 2013).
# Legend:
# [1] = system: PPAR δ-deficient cells; assay: Primary cell culture and real-time PCR gene expression analysis, PPAR δ-deficient cells; type: cell-based, mouse; settings: 300 nM
# Method: (§1) However, it has not been reported that the PPARs response element (PPRE) is present at promoters of these three genes. Therefore, the present inventors resected the muscle of the mouse with the removal of PPAR δ gene and conducted primary culture, in order to verify whether or not the increases in expressions of the above three genes are PPAR δ-dependent. After hind legs of a five-day-old fetus was resected, primary culture was conducted by the same method as developed by Rando (Rando et al, J. Cell. Biol., 1994, 125, 1275-1287). Myoblast, after being cultured, was transferred to a 6-well plate, and then differentiated into myotube while being treated with 300 nM of PPAR δ agonist (CMDD1111). The differentiated myotube was further treated with 300 nM of PPAR δ agonist (CMDD1111) for 2 days, and then total RNA was extracted by using a TRIzol reagent (Gibco). The extracted RNA was subjected to reverse transcription, to synthesize cDNA, which was then used as a template for real-time PCR analysis.
# As the result of real-time PCR analysis, expressions of PDK4 and CPT-1, known to be directly regulated by PPAR δ, were increased by 2.2 fold and 1.5 fold, respectively. However, there was no change in PPAR δ-deficient cells. This means that expressions of PDK4 and CPT-1 are PPAR δ-dependently regulated. […]
# [2] = Pharmacokinetic experiment: passage of PPAR δ agonist through the placenta; type: in vivo, mice
# Method: Pharmacokinetic experiment was conducted in order to confirm whether or not a PPAR δ agonist used in the present study, CMDD1111, passes through the placenta. CMDD 1111 was administered to 16-day pregnant mice at a concentration of 10 mg/kg, and then concentrations of the compound distributed in the bloods of mother animals and fetuses were analyzed for 24 hours. […] In the case of the fetuses, the blood concentration thereof tended to increase with the time, unlike the mother animals, and the maximum blood concentration thereof was 8.9 μM.
# [3] = system: primary cultured myotube; assay: Primary cell culture and real-time PCR gene expression analysis; type: cell-based, mouse; settings: 300 nM, real-time PCR
# Method: as §1
# [4] = system: slow muscle fibers in the gastrocnemius muscle; assay: Muscle fiber type analysis (muscle colour, metachromatic staining, slow type MHC immunostaining); type: in vivo, mice
# Source text: The slow muscle fiber has a lot of myoglobin, which is oxygen transfer protein, and thus appears redder than the fast muscle. When the skin of the fetus was removed and the muscle thereof was observed, it may be seen that administered mice group had redder muscle (FIGS. 7A and 7B). In order to confirm whether or not slow muscle fiber generation was increased due to the administration material (CMDD1111), hind legs thereof were resected and then frozen in OCT. Frozen muscle tissues were cut into […] sections by using a freezing cryotome, and mounted on slides, which was then subjected to metachromatic staining. The slow muscle fiber was stained darker blue than the fast muscle by the metachromatic staining. […] Muscle fibers may be discernable even by immunostaining using an isoform antibody of the myosin heavy chain (MHC). The present inventors conducted immunostaining using the slow type MHC in order to confirm whether or not slow muscle fibers were increased by the administration material (CMDD1111).
# [5] = system: leptin receptor-deficient mouse (db/db); assay: Glucose tolerance test in type II diabetes mouse model after fetal reprogramming; type: in vivo; settings: homo type male db/db fetuses; mother dosed only during lactation
# Method: The present researchers have checked the fetal reprogramming effect of PPAR δ by using a leptin receptor-deficient mouse (db/db). After hetero type female and male mice were bred, the PPAR δ agonist (CMDD1111) was administered to the female mice only during the lactation period. The glucose tolerance test (GTT) was conducted using only homo type male fetuses having induced diabetes through gene analysis and blood glucose analysis.
# [6] = system: mice subjected to fetal reprogramming; assay: Respiratory exchange ratio (RER) measurement using Oximax; type: in vivo
# Method: RER is a ratio of the amount of CO2 exhaled to O2 inhaled in one breath. The RER is 1.0 when carbohydrate is mainly used for energy production, while the RER is 0.7 when fat is used. […] The RER experiment using Oximax (Columbus) was conducted in order to evaluate whether or not this increase in slow muscle fiber generation actually influenced mouse energy metabolism. […] Since the RER has a periodic value depending on the time, the RER difference between the two groups was more clearly compared by using AUL, in order to check the RER difference between the two groups. The average AUL value of the control group was 107.4±1.4. Whereas, the average AUL value of the mouse group subjected to fetal reprogramming was 102.2±2.8, which was lower than that of the mouse control group (FIG. 17).
# The present inventors checked a difference in lipid oxidation capacity between the two groups by using the following equations.
# Carbohydrate oxidation=(4.51·RER−3.18)·VO2
# Lipid oxidation=1.67·(1−RER)·VO2
# As the calculation result, it may be seen that the mouse group to which PPAR δ agonist (CMDD1111) was administered during the fetal programming period used more lipid by average 44% (6.6 mg/kgmin vs. 9.5 mg/kgmin) but less carbohydrate by 20% (48 mg/kgmin vs. 38 mg/kgmin), as compared with the control group to which vehicle was administered. Therefore, it may be seen that the mice in which PPAR δ was activated during the fetal programming period had increased slow muscle fiber generation and thus increased the lipometabolism.
smiles,measurement,setting,value
Cc1cc(SC(Cc2ccccc2)c2sc(-c3ccc(C(F)(F)F)cc3)nc2C)ccc1OCC(=O)O (stereo not drawn) [CMDD1111],expressions of PDK4 and CPT-1,[1],no change
same,passage through the placenta,"[2]; 16-day pregnant mice, 10 mg/kg",passed through the placenta
same,half-life,"[2]; female, mouse, blood, oral, mother animals, 16-day pregnant mice, 10 mg/kg, read-out: half-time (t1/2) (converted)",9 h
same,Cmax,"[2]; female, mouse, blood, oral, mother animals, 16-day pregnant mice, 10 mg/kg, read-out: maximum blood concentration (Cmax)",38 µM
same,Tmax,"[2]; female, mouse, blood, oral, mother animals, 16-day pregnant mice, 10 mg/kg, read-out: time for reaching the maximum blood concentration (Tmax)",1 h
same,maximum blood concentration,"[2]; fetuses, mother given 10 mg/kg, 24 hours",8.9 µM
same,expression of ATP2A2,[3],4.3 fold
same,expression of CPT-1,[3],1.5 fold
same,expression of PDK4,[3],2.2 fold
same,expression of PLN,[3],1.7 fold
same,expression of RYR,[3],2.2 fold
same,expression of TNNI3,[3],1.7 fold
same,muscle colour after skin removal,"[4]; fetal reprogramming, maternal 10 mg/kg",redder muscle
same,"muscle fibers responsive to slow type MHC, immunostaining",[4]; gastrocnemius muscle,increased
same,"slow (dark blue) muscle fibers, metachromatic staining",[4]; gastrocnemius muscle,increasingly generated
same,glucose tolerance (GTT),[5],improved
same,carbohydrate oxidation,[6]; calculated from RER and VO2,38 mg/kgmin
same,less carbohydrate used versus vehicle control,[6]; calculated from RER and VO2,20%
same,lipid oxidation,[6]; calculated from RER and VO2,9.5 mg/kgmin
same,more lipid used versus vehicle control,[6]; calculated from RER and VO2,44%
same,average AUL value of RER,[6]; mouse group subjected to fetal reprogramming,102.2±2.8
